The source of these data is ChEMBL document CHEMBL1149542, “Carbonic anhydrase inhibitors: inhibition of human, bacterial, and archaeal isozymes with benzene-1,3-disulfonamides--solution and crystallographic studies” (Bioorg Med Chem Lett, 2007).

Assay [1] deals with Methanosarcina thermophila.
Description: Inhibition of Methanosarcina thermophila gamma CA
The target of assay [2] is Carbonic anhydrase 14 (Homo sapiens) (UniProt Q9ULX7).
In assay [3] the target is Carbonic anhydrase 6 (Homo sapiens) (UniProt P23280).
Assay [4] has as its system Helicobacter pylori.
Description: Inhibition of Helicobacter pylori beta CA
The target of assay [5] is Carbonic anhydrase 5B, mitochondrial (Homo sapiens) (UniProt Q9Y2D0).
The target of assay [6] is Carbonic anhydrase 5A, mitochondrial (Homo sapiens) (UniProt P35218).
Assay [7] concerns Helicobacter pylori. The source holds these as a separate data set.
Description: Inhibition of Helicobacter pylori alpha CA
In assay [8] the target is Carbonic anhydrase 1 (Homo sapiens) (UniProt P00915).
The target in assay [9] is Carbonic anhydrase 7 (Homo sapiens) (UniProt P43166).
Assay [10] addresses Carbonic anhydrase 12 (Homo sapiens) (UniProt O43570).
Assay [11] addresses Carbonic anhydrase 9 (Homo sapiens) (UniProt Q16790).
Description: Inhibition of human CA9 catalytic domain
Assay [12] deals with Carbonic anhydrase 13 (Mus musculus) (UniProt Q9D6N1). The assay can be described thus: Inhibition of mouse CA13.
The target in assay [13] is Carbonic anhydrase 4 (Homo sapiens) (UniProt P22748).
Sequence of Carbonic anhydrase 4 (Homo sapiens) (P22748 whole entry): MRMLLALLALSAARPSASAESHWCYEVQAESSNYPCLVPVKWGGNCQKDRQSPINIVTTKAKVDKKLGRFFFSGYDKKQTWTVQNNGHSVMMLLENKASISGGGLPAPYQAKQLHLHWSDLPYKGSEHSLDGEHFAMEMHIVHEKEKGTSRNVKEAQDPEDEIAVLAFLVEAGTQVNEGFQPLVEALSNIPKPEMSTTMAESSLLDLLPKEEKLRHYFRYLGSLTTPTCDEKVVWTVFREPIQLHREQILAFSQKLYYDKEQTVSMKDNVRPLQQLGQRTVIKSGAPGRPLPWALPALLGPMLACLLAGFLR

Sequence of Carbonic anhydrase 5A, mitochondrial (Homo sapiens) (P35218 whole entry): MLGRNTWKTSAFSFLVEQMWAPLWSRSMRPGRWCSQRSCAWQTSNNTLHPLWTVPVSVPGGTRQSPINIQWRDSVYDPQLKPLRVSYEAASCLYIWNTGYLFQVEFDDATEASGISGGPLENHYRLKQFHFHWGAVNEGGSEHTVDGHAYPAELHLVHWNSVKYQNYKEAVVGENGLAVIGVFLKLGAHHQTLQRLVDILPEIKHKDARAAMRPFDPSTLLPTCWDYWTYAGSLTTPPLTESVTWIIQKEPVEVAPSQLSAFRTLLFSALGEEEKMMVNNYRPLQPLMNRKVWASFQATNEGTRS
Sequence of Carbonic anhydrase 14 (Homo sapiens) (Q9ULX7 whole entry): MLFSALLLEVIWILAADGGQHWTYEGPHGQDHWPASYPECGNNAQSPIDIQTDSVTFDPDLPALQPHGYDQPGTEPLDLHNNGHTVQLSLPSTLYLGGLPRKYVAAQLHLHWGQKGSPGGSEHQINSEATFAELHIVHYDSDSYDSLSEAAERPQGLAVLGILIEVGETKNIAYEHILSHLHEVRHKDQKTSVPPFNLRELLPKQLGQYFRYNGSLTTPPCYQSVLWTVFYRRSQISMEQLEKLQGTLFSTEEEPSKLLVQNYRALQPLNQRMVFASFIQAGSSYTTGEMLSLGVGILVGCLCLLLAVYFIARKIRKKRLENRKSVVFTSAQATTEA
Sequence of Carbonic anhydrase 5B, mitochondrial (Homo sapiens) (Q9Y2D0 whole entry): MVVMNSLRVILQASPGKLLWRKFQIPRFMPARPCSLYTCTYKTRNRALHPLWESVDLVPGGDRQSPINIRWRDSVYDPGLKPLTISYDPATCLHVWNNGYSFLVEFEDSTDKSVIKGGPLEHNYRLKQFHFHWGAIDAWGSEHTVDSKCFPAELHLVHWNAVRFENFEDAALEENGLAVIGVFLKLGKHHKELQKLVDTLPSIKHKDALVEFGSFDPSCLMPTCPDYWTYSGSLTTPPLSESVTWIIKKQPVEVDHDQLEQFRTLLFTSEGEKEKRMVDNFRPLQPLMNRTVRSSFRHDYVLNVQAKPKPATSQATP
Sequence of Carbonic anhydrase 6 (Homo sapiens) (P23280 whole entry): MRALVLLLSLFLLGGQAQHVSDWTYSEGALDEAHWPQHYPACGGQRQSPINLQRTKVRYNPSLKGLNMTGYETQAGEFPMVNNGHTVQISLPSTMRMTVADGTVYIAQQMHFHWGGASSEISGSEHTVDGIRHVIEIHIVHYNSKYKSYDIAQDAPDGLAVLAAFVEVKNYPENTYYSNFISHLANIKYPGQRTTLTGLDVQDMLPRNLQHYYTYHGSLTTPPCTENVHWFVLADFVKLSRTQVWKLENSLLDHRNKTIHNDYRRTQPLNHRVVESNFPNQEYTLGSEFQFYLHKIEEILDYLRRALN
Sequence of Carbonic anhydrase 13 (Mus musculus) (Q9D6N1 whole entry, looked up): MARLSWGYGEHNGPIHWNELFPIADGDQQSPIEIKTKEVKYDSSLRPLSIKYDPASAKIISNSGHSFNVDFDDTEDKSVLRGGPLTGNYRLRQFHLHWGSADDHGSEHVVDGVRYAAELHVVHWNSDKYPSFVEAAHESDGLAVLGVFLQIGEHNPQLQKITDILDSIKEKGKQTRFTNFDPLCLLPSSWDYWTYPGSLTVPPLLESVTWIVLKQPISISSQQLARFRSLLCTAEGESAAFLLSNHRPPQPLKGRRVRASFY
Sequence of Carbonic anhydrase 7 (Homo sapiens) (P43166 whole entry): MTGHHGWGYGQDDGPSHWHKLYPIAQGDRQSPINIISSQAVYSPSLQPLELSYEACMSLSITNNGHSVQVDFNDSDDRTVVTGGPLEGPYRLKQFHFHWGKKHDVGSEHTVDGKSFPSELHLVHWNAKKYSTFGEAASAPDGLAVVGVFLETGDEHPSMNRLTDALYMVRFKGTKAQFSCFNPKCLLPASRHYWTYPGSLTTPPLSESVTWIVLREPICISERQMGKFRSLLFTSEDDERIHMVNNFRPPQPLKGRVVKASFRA
Sequence of Carbonic anhydrase 1 (Homo sapiens) (P00915 2-261 limits assumed): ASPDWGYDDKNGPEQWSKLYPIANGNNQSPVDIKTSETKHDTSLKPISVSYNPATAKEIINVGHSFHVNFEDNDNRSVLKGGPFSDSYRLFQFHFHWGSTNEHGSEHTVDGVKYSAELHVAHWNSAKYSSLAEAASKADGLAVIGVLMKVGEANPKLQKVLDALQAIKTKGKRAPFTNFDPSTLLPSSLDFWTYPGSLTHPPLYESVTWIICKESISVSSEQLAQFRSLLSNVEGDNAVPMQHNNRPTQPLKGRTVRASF
Sequence of Carbonic anhydrase 12 (Homo sapiens) (O43570 whole entry): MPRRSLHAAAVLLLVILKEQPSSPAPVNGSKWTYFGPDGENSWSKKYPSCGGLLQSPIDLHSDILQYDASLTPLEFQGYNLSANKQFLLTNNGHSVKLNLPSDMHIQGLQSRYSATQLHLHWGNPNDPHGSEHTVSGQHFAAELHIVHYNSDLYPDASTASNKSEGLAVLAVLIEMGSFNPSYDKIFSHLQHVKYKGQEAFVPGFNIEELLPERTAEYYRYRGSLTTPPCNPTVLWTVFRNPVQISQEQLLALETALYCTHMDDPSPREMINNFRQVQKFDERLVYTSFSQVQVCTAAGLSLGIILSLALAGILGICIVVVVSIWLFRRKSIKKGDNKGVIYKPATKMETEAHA

For the compound `CCN[C@H]1CN(CCCOC)S(=O)(=O)c2sc(S(N)(=O)=O)cc21`, the Kinact was 460 nM in assay [1]; 24 nM in assay [2]; 0.9 nM in assay [3]; 128 nM in assay [4]; 30 nM in assay [5]; 50 nM in [6]. Also, the Kinact in assay [7] was 210 nM.
Regarding `NS(=O)(=O)c1cc(C(=O)O)c(NCC2CCCO2)cc1Cl` (stereo unspecified), the Kinact in assay [8] worked out at 62 nM; in assay [6], 499 nM; in [9] it was 513 nM.
For the compound `NS(=O)(=O)c1cc2c(cc1Cl)NC(C(Cl)Cl)NS2(=O)=O` (stereo unspecified), the Kinact stood at 355 nM in [10]; 4100 nM in [2]; 367 nM in assay [11]; 3.89 µM in [12]; 3660 nM in assay [3]; 603 nM in assay [5]. Further, the Kinact in assay [13] was determined as 427 nM; in assay [6], 4220 nM.
Consider `CC(=O)/N=c1/sc(S(N)(=O)=O)nn1C`, for which the Kinact in assay [1] was found to be 140 nM; in [4] it was 176 nM; in assay [7], 225 nM.
